Key:
JAK2 = JAK2 (Homo sapiens, UniProt O60674); assay: Biochemical potency on JAK2, TR-FRET (LANCE Ultra kinase assay); conditions: ATP corresponding to Km; cell-free; read-out: JAK2 inhibitory activity (pIC50) (converted)
Method in brief: (§1)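 ULight-JAK-1 (Tyr1023) peptide phosphorylation at Km ATP, 1.5 h r.t.; substrate solution held peptide 30/50/20/10 nM and ATP 20/0.7/0.2/12 μM, enzyme solution 0.15/0.083/0.025/0.144 ng/μL (JAK1/JAK2/JAK3/TYK2). EDTA stop, Eu-PT66 antibody TR-FRET read at 665 nm; 11-point 5-fold dilutions from 20 μM; IC50 by variable-slope fit.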

JAK3 = molecular target: T1, JAK3 (Homo sapiens, UniProt P52333); assay: Biochemical potency on JAK3, TR-FRET (LANCE Ultra kinase assay); conditions: ATP corresponding to Km; cell-free; read-out: JAK3 inhibitory activity (pIC50) (converted)
T1 sequence (P52333 1-1124): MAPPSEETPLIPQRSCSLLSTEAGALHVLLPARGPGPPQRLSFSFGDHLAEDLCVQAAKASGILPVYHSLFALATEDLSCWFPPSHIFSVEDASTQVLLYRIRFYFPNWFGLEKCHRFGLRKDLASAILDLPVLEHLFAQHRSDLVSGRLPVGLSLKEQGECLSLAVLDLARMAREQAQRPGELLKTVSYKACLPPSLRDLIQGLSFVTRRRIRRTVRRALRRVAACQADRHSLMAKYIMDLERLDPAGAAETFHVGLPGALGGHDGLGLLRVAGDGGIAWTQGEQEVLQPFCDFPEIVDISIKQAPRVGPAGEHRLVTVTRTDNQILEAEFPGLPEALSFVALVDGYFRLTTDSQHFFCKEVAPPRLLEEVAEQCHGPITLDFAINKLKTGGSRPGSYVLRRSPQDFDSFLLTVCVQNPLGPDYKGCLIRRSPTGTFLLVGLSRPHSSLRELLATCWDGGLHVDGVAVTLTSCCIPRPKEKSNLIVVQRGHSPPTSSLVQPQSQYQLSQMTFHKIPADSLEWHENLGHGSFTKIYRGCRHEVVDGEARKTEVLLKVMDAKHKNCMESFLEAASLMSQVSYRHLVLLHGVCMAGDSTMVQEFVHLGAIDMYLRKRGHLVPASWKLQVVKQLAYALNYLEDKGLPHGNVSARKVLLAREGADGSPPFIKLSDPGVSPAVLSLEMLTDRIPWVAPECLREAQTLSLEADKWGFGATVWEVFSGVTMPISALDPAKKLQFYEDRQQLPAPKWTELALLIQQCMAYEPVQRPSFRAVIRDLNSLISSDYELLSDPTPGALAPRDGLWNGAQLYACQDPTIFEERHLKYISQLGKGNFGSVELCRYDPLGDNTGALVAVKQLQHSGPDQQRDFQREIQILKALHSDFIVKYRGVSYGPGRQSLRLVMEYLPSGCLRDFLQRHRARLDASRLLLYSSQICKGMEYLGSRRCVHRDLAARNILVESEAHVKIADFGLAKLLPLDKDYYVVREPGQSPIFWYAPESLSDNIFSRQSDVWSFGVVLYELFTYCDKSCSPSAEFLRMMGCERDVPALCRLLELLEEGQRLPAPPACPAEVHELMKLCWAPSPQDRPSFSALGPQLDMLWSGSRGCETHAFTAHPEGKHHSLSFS
Method in brief: as §1

TYK2 = TYK2 (Homo sapiens, UniProt P29597); assay: Biochemical potency on Tyk2, TR-FRET (LANCE Ultra kinase assay); conditions: ATP corresponding to Km; cell-free; read-out: TYK2 inhibitory activity (pIC50) (converted)
Sequence of TYK2 (P29597 whole entry): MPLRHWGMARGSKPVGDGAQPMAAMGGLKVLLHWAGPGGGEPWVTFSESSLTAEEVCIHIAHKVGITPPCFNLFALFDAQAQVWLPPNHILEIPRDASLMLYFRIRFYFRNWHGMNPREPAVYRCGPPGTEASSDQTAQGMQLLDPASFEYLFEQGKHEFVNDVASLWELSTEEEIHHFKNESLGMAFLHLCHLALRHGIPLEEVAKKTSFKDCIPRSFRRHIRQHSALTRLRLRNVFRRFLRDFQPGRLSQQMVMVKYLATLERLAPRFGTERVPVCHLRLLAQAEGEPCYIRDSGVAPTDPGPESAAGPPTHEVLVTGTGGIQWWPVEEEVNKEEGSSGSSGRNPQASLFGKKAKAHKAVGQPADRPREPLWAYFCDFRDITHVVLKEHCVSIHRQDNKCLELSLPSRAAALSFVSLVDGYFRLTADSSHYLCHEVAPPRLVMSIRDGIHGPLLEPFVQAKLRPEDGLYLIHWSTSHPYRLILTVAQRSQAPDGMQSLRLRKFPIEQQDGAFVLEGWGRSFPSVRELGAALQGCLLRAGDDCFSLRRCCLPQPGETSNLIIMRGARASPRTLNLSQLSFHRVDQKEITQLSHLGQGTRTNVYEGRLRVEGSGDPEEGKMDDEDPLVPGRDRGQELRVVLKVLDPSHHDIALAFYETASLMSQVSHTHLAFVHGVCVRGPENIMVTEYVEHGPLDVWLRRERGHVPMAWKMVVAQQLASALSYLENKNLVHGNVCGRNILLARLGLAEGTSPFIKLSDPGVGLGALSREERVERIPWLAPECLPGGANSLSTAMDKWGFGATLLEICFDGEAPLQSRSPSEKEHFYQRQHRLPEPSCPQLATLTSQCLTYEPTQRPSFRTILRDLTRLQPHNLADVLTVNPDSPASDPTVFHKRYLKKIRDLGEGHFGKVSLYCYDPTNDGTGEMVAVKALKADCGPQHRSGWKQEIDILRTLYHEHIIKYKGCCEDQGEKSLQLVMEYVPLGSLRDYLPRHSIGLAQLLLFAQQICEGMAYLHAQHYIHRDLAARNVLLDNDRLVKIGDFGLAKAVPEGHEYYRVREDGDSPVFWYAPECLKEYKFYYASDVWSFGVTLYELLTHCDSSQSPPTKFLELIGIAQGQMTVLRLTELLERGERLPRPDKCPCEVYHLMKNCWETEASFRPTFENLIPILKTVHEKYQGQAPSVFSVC
Method in brief: as §1

[1] = system: pSTAT6 in BEAS-2B human cell line; assay: Inhibition of IL-13 induced pSTAT6 in BEAS; format: cell-based; conditions: for IC50: Homo sapiens, BEAS-2B, 0.5 h, IL-13 trigger, 30 min, parent compound; for Fold difference parent vs predicted acid metabolite: ratio=IC50 predicted acid metabolite/IC50 ester
Method in brief: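 BEAS-2B cells grown 48 h, pre-treated 30 min with compound, then stimulated 30 min with IL-13. Lysate pSTAT6 (Tyr641) measured by sandwich ELISA. Eleven 5-fold dilutions from 10 μM, in duplicate, fitted to IC50.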

JAK1 = JAK1 (Homo sapiens, UniProt P23458); assay: Biochemical potency on JAK1, TR-FRET (LANCE Ultra kinase assay); conditions: ATP corresponding to Km; cell-free; read-out: JAK1 inhibitory activity (pIC50) (converted)
Sequence of JAK1 (P23458 whole entry): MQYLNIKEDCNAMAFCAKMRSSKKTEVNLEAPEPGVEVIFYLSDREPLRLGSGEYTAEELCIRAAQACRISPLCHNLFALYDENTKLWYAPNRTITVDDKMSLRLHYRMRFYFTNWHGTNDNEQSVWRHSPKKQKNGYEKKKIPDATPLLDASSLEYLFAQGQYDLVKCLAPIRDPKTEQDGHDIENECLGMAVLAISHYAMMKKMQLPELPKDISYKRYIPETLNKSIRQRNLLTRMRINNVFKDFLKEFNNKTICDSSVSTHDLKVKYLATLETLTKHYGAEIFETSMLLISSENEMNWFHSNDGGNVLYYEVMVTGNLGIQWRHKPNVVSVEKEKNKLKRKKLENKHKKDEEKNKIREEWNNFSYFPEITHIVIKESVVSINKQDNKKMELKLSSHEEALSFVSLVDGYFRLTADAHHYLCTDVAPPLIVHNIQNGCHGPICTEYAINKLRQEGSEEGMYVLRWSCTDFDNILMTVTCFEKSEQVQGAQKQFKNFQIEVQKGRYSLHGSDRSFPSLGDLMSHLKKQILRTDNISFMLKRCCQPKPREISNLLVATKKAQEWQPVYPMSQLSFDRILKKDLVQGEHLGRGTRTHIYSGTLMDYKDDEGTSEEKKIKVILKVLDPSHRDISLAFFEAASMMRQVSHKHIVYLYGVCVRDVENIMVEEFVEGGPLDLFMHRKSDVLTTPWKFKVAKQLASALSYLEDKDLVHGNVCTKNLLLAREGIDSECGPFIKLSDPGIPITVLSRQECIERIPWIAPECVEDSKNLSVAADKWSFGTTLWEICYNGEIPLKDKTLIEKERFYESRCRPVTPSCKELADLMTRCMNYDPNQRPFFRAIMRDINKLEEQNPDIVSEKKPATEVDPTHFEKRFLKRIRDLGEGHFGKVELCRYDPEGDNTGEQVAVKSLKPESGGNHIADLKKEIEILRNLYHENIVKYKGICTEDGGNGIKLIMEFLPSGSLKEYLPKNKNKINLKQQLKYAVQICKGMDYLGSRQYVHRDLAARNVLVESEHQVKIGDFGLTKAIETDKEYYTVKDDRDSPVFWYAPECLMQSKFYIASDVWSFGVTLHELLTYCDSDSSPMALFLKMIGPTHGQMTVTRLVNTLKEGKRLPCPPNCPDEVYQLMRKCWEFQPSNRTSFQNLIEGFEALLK
Method in brief: as §1

Sequence of JAK2 (O60674 whole entry): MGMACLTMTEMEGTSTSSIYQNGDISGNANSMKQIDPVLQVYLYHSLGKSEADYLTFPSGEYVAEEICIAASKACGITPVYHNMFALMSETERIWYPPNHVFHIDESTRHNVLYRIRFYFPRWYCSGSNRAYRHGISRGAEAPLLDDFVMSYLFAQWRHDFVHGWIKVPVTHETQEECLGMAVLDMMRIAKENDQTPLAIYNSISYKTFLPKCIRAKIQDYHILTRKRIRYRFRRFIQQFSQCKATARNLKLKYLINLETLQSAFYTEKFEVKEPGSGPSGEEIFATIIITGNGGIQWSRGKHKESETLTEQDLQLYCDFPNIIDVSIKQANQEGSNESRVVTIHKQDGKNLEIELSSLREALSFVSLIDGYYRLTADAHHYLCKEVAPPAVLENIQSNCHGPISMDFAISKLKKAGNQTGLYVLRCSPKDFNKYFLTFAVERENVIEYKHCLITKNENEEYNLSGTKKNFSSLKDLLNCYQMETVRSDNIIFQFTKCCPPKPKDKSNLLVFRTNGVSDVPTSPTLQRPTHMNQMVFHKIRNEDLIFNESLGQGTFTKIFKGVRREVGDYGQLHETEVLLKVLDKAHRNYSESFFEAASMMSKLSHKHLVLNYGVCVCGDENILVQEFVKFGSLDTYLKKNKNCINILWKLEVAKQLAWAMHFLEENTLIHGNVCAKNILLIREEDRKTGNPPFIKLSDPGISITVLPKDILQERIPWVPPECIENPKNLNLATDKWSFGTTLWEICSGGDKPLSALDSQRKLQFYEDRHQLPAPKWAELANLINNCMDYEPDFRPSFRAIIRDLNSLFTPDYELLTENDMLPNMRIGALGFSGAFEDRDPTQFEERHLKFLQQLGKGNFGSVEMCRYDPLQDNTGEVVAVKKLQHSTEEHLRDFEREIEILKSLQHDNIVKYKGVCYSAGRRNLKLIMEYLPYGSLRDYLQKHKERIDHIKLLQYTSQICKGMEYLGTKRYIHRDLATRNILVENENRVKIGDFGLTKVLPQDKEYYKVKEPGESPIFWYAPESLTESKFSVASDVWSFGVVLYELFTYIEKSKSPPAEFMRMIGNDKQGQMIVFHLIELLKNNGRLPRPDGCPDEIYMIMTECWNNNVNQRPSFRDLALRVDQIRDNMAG

Structure (SMILES) | IC50 (JAK2) [nM] | IC50 (JAK3) [nM] | IC50 (TYK2) [nM] | IC50 (JAK1) [nM] | IC50 [1] [nM] | Fold difference parent vs predicted acid metabolite [1]
CCOC(=O)COC(=O)Nc1nn(-c2cc3c(cc2OC)NCCO3)c2cc(-c3cnn4cccnc34)ncc12 [Example 39, ethyl 2-(((1-(6-methoxy-3,4-dihydro-2H-benzo[b][1,4]oxazin-7-yl)-6-(pyrazolo[1,5-a]pyrimidin-3-yl)-1H-pyrazolo[4,3-c]pyridin-3-yl)carbamoyl)oxy)acetate] | ≤ 5.01 | ≤ 5.01 | 5.01 to 50.1 | ≤ 5.01 | 5.01 to 50.1 | kkkk (ratio≥200)
COc1cc2c(cc1-n1nc(C(=O)NCCN3CCC(C(=O)O[C@H]4CCN(C)C4)CC3)c3cnc(-c4cnn5cccnc45)cc31)OCCN2 [Example 24, (S)-1-methylpyrrolidin-3-yl 1-(2-(1-(6-methoxy-3,4-dihydro-2H-benzo[b][1,4]oxazin-7-yl)-6-(pyrazolo[1,5-a]pyrimidin-3-yl)-1H-pyrazolo[4,3-c]pyridine-3-carboxamido)ethyl)piperidine-4-carboxylate] | ≤ 5.01 | ≤ 5.01 | 5.01 to 50.1 | ≤ 5.01 | 5.01 to 50.1 | kkk (200>ratio≥100)
COCC(C)(C)OC(=O)C1CCN(CCNC(=O)c2nn(-c3cc4c(cc3OC)NCCO4)c3cc(-c4cnn5cccnc45)ncc23)CC1 [Example 5, 1-methoxy-2-methylpropan-2-yl 1-(2-(1-(6-methoxy-3,4-dihydro-2H-benzo[b][1,4]oxazin-7-yl)-6-(pyrazolo[1,5-a]pyrimidin-3-yl)-1H-pyrazolo[4,3-c]pyridine-3-carboxamido)ethyl)piperidine-4-carboxylate] | ≤ 5.01 | ≤ 5.01 | 5.01 to 50.1 | ≤ 5.01 | ≤ 5.01 | kkkk (ratio≥200)
CCOC(=O)C1CCN(CCOC(=O)Nc2nn(-c3cc4c(cc3OC)NCCS4)c3cc(-c4cnn5cccnc45)ncc23)CC1 [Example 4, ethyl 1-(2-(((1-(6-methoxy-3,4-dihydro-2H-benzo[b][1,4]thiazin-7-yl)-6-(pyrazolo[1,5-a]pyrimidin-3-yl)-1H-pyrazolo[4,3-c]pyridin-3-yl)carbamoyl)oxy)ethyl)piperidine-4-carboxylate] | ≤ 5.01 | ≤ 5.01 | ≤ 5.01 | ≤ 5.01 | ≤ 5.01 | kk (100>ratio≥10)
COc1cc2c(cc1-n1nc(C(=O)NCCN3CCC(C(=O)OC4CC4)CC3)c3cnc(-c4cnn5cccnc45)cc31)OCCN2 [Example 11, cyclopropyl 1-(2-(1-(6-methoxy-3,4-dihydro-2H-benzo[b][1,4]oxazin-7-yl)-6-(pyrazolo[1,5-a]pyrimidin-3-yl)-1H-pyrazolo[4,3-c]pyridine-3-carboxamido)ethyl)piperidine-4-carboxylate] | ≤ 5.01 | ≤ 5.01 | 5.01 to 50.1 | ≤ 5.01 | ≤ 5.01 | kkkk (ratio≥200)
COc1cc2c(cc1-n1nc(C(=O)NCCN3CC[C@@H](C(=O)OCC(C)(C)C#N)C3)c3cnc(-c4cnn5cccnc45)cc31)OCCN2 [Example 49, 2-cyano-2-methylpropyl (R)-1-(2-(1-(6-methoxy-3,4-dihydro-2H-benzo[b][1,4]oxazin-7-yl)-6-(pyrazolo[1,5-a]pyrimidin-3-yl)-1H-pyrazolo[4,3-c]pyridine-3-carboxamido)ethyl)pyrrolidine-3-carboxylate] | ≤ 5.01 | ≤ 5.01 | 5.01 to 50.1 | ≤ 5.01 | ≤ 5.01 | kkk (200>ratio≥100)
COc1cc2c(cc1-n1nc(C(=O)NCCN3CCC(C(=O)OCC(C)(C)O)CC3)c3cnc(-c4cnn5cccnc45)cc31)OCCN2 [Example 14, 2-hydroxy-2-methylpropyl 1-(2-(1-(6-methoxy-3,4-dihydro-2H-benzo[b][1,4]oxazin-7-yl)-6-(pyrazolo[1,5-a]pyrimidin-3-yl)-1H-pyrazolo[4,3-c]pyridine-3-carboxamido)ethyl)piperidine-4-carboxylate] | ≤ 5.01 | ≤ 5.01 | 5.01 to 50.1 | ≤ 5.01 | ≤ 5.01 | kkkk (ratio≥200)

More lines, main results first:

IC50 (JAK2) [nM] | IC50 (JAK3) [nM] | IC50 (TYK2) [nM] | IC50 (JAK1) [nM] | Structure (SMILES) | IC50 [1] [nM] | Fold difference parent vs predicted acid metabolite [1]
≤ 5.01 | ≤ 5.01 | > 50.1 | 5.01 to 50.1 | CCCOC(=O)CN(C)CCNC(=O)c1nn(-c2cc3c(cc2OC)NCCO3)c2cc(-c3cnn4cccnc34)ncc12 [Example 6, propyl N-(2-(1-(6-methoxy-3,4-dihydro-2H-benzo[b][1,4]oxazin-7-yl)-6-(pyrazolo[1,5-a]pyrimidin-3-yl)-1H-pyrazolo[4,3-c]pyridine-3-carboxamido)ethyl)-N-methylglycinate] | 5.01 to 50.1 | 
≤ 5.01 | ≤ 5.01 | 5.01 to 50.1 | ≤ 5.01 | COc1cc2c(cc1-n1nc(C(=O)NCCN3CCC(C(=O)OCC4CN(C)CCO4)CC3)c3cnc(-c4cnn5cccnc45)cc31)OCCN2 (centres unmarked) [Example 19, (4-methylmorpholin-2-yl)methyl 1-(2-(1-(6-methoxy-3,4-dihydro-2H-benzo[b][1,4]oxazin-7-yl)-6-(pyrazolo[1,5-a]pyrimidin-3-yl)-1H-pyrazolo[4,3-c]pyridine-3-carboxamido)ethyl)piperidine-4-carboxylate] | ≤ 5.01 | kkkk (ratio≥200)
≤ 5.01 | ≤ 5.01 | 5.01 to 50.1 | ≤ 5.01 | COc1cc2c(cc1-n1nc(C(=O)NCCN3CCC(C(=O)O[C@@H]4CN(C)C[C@H]4F)CC3)c3cnc(-c4cnn5cccnc45)cc31)OCCN2 (relative stereo) [Example 51, (3R*,4R*)-4-fluoro-1-methylpyrrolidin-3-yl 1-(2-(1-(6-methoxy-3,4-dihydro-2H-benzo[b][1,4]oxazin-7-yl)-6-(pyrazolo[1,5-a]pyrimidin-3-yl)-1H-pyrazolo[4,3-c]pyridine-3-carboxamido)ethyl)piperidine-4-carboxylate] | 5.01 to 50.1 | kkk (200>ratio≥100)
≤ 5.01 | ≤ 5.01 | 5.01 to 50.1 | ≤ 5.01 | CCOC(=O)C1CCN(CCOC(=O)Nc2nn(-c3cc4c(cc3OC)NCCO4)c3cc(-c4cnn5cccnc45)ncc23)CC1 [Example 41, ethyl 1-(2-(((1-(6-methoxy-3,4-dihydro-2H-benzo[b][1,4]oxazin-7-yl)-6-(pyrazolo[1,5-a]pyrimidin-3-yl)-1H-pyrazolo[4,3-c]pyridin-3-yl)carbamoyl)oxy)ethyl)piperidine-4-carboxylate] | ≤ 5.01 | kkk (200>ratio≥100)
≤ 5.01 | ≤ 5.01 | 5.01 to 50.1 | ≤ 5.01 | COc1cc2c(cc1-n1nc(C(=O)NCCN3CCC(C(=O)O[C@@H]4CCN(C)C4)CC3)c3cnc(-c4cnn5cccnc45)cc31)OCCN2 [Example 23, (R)-1-methylpyrrolidin-3-yl 1-(2-(1-(6-methoxy-3,4-dihydro-2H-benzo[b][1,4]oxazin-7-yl)-6-(pyrazolo[1,5-a]pyrimidin-3-yl)-1H-pyrazolo[4,3-c]pyridine-3-carboxamido)ethyl)piperidine-4-carboxylate] | 5.01 to 50.1 | kkk (200>ratio≥100)

Reference: patent US20260337208A1, “HETEROCYCLIC DERIVATIVES AS JANUS KINASE INHIBITORS” (CHIESI FARMACEUTICI S.P.A., priority 2022, published 2026)
